Experimental data taken from patent publication US8865623B2, “Herbicidally active cyclic diones and derivatives thereof, processes for their preparation, compositions, and method of controlling weeds” (Syngenta Limited, priority 2009, dated 2014).

Tests used:
Type in all cases: in vivo
[1] = test system: Alopecurus myosuroides (ALOMY); experiment: Post-emergence herbicidal activity, glasshouse pot test; conditions: Alopecurus myosuroides, 312 h, rate 250 g/ha, evaluated after 13 days, read-out: Post-emergence activity ALOMY (100=total damage to plant; 0=no damage to plant)
Procedure, shortened: (§1)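 Test species are sown in pots of standard soil and sprayed either one day after sowing or after 8 days of cultivation, for pre- and post-emergence respectively. Plants grow in a controlled glasshouse, watered twice daily, and damage is assessed at 13 days, 0 to 100.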

[2] = test system: Lolium perenne (LOLPE); experiment: as above; conditions: Lolium perenne, 312 h, rate 250 g/ha, evaluated after 13 days, read-out: Post-emergence activity LOLPE (100=total damage to plant; 0=no damage to plant)
Procedure, shortened: as §1

[3] = test system: Echinochloa crus-galli (ECHCG); experiment: as above; conditions: Echinochloa crus-galli, 312 h, rate 250 g/ha, evaluated after 13 days, read-out: Post-emergence activity ECHCG (100=total damage to plant; 0=no damage to plant)
Procedure, shortened: as §1

[4] = test system: Avena fatua (AVEFA); experiment: as above; conditions: Avena fatua, 312 h, rate 250 g/ha, evaluated after 13 days, read-out: Post-emergence activity AVEFA (100=total damage to plant; 0=no damage to plant)
Procedure, shortened: as §1

[5] = test system: Alopecurus myosuroides (ALOMY); experiment: Pre-emergence herbicidal activity, glasshouse pot test; conditions: Alopecurus myosuroides, 312 h, Rate 250 g/ha, evaluated after 13 days, read-out: Pre-emergence activity ALOMY (100=total damage to plant; 0=no damage to plant)
Procedure, shortened: as §1

[6] = test system: Lolium perenne (LOLPE); experiment: as above; conditions: Lolium perenne, 312 h, Rate 250 g/ha, evaluated after 13 days, read-out: Pre-emergence activity LOLPE (100=total damage to plant; 0=no damage to plant)
Procedure, shortened: as §1

[7] = test system: Echinochloa crus-galli (ECHCG); experiment: as above; conditions: Echinochloa crus-galli, 312 h, Rate 250 g/ha, evaluated after 13 days, read-out: Pre-emergence activity ECHCG (100=total damage to plant; 0=no damage to plant)
Procedure, shortened: as §1

[8] = test system: Avena fatua (AVEFA); experiment: as above; conditions: Avena fatua, 312 h, Rate 250 g/ha, evaluated after 13 days, read-out: Pre-emergence activity AVEFA (100=total damage to plant; 0=no damage to plant)
Procedure, shortened: as §1

Row | Structure (SMILES) | pest or weed control at 250 g/ha ([1]; glasshouse) [%] | pest or weed control at 250 g/ha ([2]; glasshouse) [%] | pest or weed control at 250 g/ha ([3]; glasshouse) [%] | pest or weed control at 250 g/ha ([4]; glasshouse) [%] | pest or weed control at 250 g/ha ([5]; pre-emergence spray) [%] | pest or weed control at 250 g/ha ([6]; pre-emergence spray) [%] | pest or weed control at 250 g/ha ([7]; pre-emergence spray) [%] | pest or weed control at 250 g/ha ([8]; pre-emergence spray) [%] | pest or weed control at 250 g/ha [1] [%] | pest or weed control at 250 g/ha [2] [%] | pest or weed control at 250 g/ha [3] [%] | pest or weed control at 250 g/ha [4] [%] | pest or weed control at 250 g/ha ([5]; pre-emergence) [%] | pest or weed control at 250 g/ha ([6]; pre-emergence) [%] | pest or weed control at 250 g/ha ([7]; pre-emergence) [%] | pest or weed control at 250 g/ha ([8]; pre-emergence) [%]
1 | CCc1ccc(Oc2ccc(C(F)(F)F)cc2Br)cc1C1=C(O)C(C)(C)OC(C)(C)C1=O [Example A-78] | 100 | 90 | 90 | 90 | 100 | 100 | 100 | 80 | – | – | – | – | – | – | – | –
2 | CCc1ccc(Oc2ccc([N+](=O)[O-])c(Cl)c2)cc1C1=C(O)CC(C)(C)CC1=O [Example A-284] | 60 | 60 | 100 | 0 | 60 | 70 | 100 | 0 | – | – | – | – | – | – | – | –
3 | CC1(C)OC(C)(C)C(O)=C(c2cc(Oc3ccc(OC(F)(F)F)cc3)ccc2C2CC2)C1=O [Example A-356] | – | – | – | – | – | – | – | – | 100 | 100 | 100 | 100 | 90 | 100 | 100 | 70
4 | CCc1ccc(Oc2ccc([N+](=O)[O-])c(C)c2)cc1C1=C(O)C(C)(C)OC(C)(C)C1=O [Example A-200] | 70 | 70 | 90 | 10 | 20 | 60 | 50 | 0 | – | – | – | – | – | – | – | –
5 | CCc1ccc(Oc2ccc(Cl)c(F)c2)cc1C1=C(O)CC2(CCOCC2)CC1=O [Example A-66] | 100 | 80 | 100 | 100 | 100 | 80 | 100 | 90 | – | – | – | – | – | – | – | –
6 | CCc1ccc(Oc2nc3c(Cl)cc(Cl)cc3s2)cc1C1=C(O)[C@H]2CC[C@H](C2)C1=O [Example A-345] | 80 | 100 | 100 | 100 | 90 | 100 | 100 | 60 | – | – | – | – | – | – | – | –
7 | CCc1ccc(Oc2nc3ccc(OC(F)(F)F)cc3s2)cc1C1=C(O)C(C)(C)OC(C)(C)C1=O [Example A-218] | 70 | 80 | 100 | 100 | 20 | 20 | 50 | 10 | – | – | – | – | – | – | – | –
8 | CCc1ccc(Oc2cc(C)ccn2)cc1C1=C(O)C(C)(C)OC(C)(C)C1=O [Example A-64] | 40 | 40 | 30 | 0 | 60 | 80 | 20 | 0 | – | – | – | – | – | – | – | –
9 | CC1(C)OC(C)(C)C(O)=C(c2cc(Oc3ccc4cc(Cl)ccc4n3)ccc2C2CC2)C1=O [Example A-312] | 100 | 100 | 100 | 100 | 70 | 100 | 100 | 70 | – | – | – | – | – | – | – | –
10 | CCc1ccc(Oc2ccc(F)cc2Cl)cc1C1=C(O)CC(C)(C)CC1=O [Example A-70] | 30 | 10 | 70 | 10 | 60 | 50 | 100 | 10 | – | – | – | – | – | – | – | –
11 | CCc1ccc(Oc2ccc(C(F)(F)F)cc2Cl)cc1C1=C(O)CC(C)(C)CC1=O [Example A-281] | 90 | 60 | 100 | 80 | 70 | 80 | 100 | 0 | – | – | – | – | – | – | – | –
12 | CCc1ccc(Oc2nc3ccc(Cl)cc3s2)cc1C1=C(O)[C@@H]2CC[C@](C)(C1=O)C2(C)C [Example A-320] | 100 | 90 | 100 | 100 | 80 | 100 | 100 | 80 | – | – | – | – | – | – | – | –
13 | CCc1ccc(Oc2nc3ccc(Cl)cc3[n+]([O-])n2)cc1C1=C(O)C(C)(C)OC(C)(C)C1=O [Example A-236] | 100 | 30 | 100 | 100 | 40 | 20 | 80 | 20 | – | – | – | – | – | – | – | –
14 | CCc1ccc(Oc2ccc(Cl)c(Cl)c2)cc1C1=C(O)C(C)(C)OC(C)(C)C1=O [Example A-182] | 90 | 60 | 100 | 60 | 30 | 80 | 90 | 30 | – | – | – | – | – | – | – | –
15 | CCc1ccc(Oc2ncccc2C(F)(F)F)cc1C1=C(O)C(C)(C)OC(C)(C)C1=O [Example A-154] | 20 | 20 | 60 | 10 | 0 | 10 | 20 | 0 | – | – | – | – | – | – | – | –
16 | CCc1ccc(Oc2ccc(F)cc2)cc1C1=C(O)CC(C)(C)CC1=O [Example A-28] | 30 | 40 | 80 | 20 | 20 | 40 | 70 | 0 | – | – | – | – | – | – | – | –
17 | CCc1ccc(Oc2nc(F)c(F)cc2F)cc1C1=C(O)C(C)(C)OC(C)(C)C1=O [Example A-167] | 60 | 50 | 100 | 40 | 30 | 30 | 100 | 10 | – | – | – | – | – | – | – | –
18 | CCc1ccc(Oc2ccc(Br)cc2C)cc1C1=C(O)C(C)(C)OC(C)(C)C1=O [Example A-12] | 20 | 50 | 70 | 0 | 0 | 0 | 0 | 0 | – | – | – | – | – | – | – | –
19 | CCc1ccc(Oc2nccnc2Cl)cc1C1=C(O)C(C)(C)OC(C)(C)C1=O [Example A-103] | 10 | 20 | 40 | 0 | 10 | 40 | 30 | 0 | – | – | – | – | – | – | – | –
